Where a name gives a salt, the structure may show the parent alone.
Legend:
[1] = system: caspase 3/7 activity in BC-3 cells; test: Induction of caspase 3/7 activity (apoptosis); format: cell-based, human; conditions: 10 μM, 24 h
Procedure: Apoptosis induction was evaluated 24 h after the treatment started by measuring caspase 3/7 activity in treated- or untreated control BC-3 cells. […] DDTC is used as a positive inducer of caspase 3/7 activity in BC-3 cell lines (Matsuno et al., 2012, Int J Oncol 40: 1071-1078).
BC-3 cells (10000 cells/well) were incubated 24 h with a concentration of 10 μM of Primaquine diphosphate (Sigma), Hycanthone (Sigma), or Diethyldithiocarbamate (DDTC) (Sigma), and then lysed and a 3/7 Reagent (DEVD) is added. Lysed cells release caspase-3 or -7, which cleave the DEVD substrate from the aminoluciferin. Finally, the oxidation of the luciferin by luciferase produces light, which is measured by a luminometer. The amount of light produced is proportional to the amount of caspase-3 or -7 activity. […] (DDTC) (Sigma) known to induce apoptosis in BC-3 cells via the inhibition of NF-κB is used as positive control.

[2] = system: phosphorylation of IκB (NF-κB pathway) in BC-3 PEL cell line; test: IκB phosphorylation, western blot; format: cell-based, human; conditions: 10 μM, pre-treated for 6 and 12 h, BC-3 cells
Procedure: BC-3 cells were pre-treated for 6 h (A) and 12 h (B) with primaquine and hycanthone at 10 μM. DDTC was used as positive control. Whole-cell lysates were prepared as described in Materials and Methods of example F and used for p-IκB western blot analysis by using the appropriate antibodies. […] Treatment of BC-3 cells with DDTC (diethyldithiocarbamate) was carried out in the same conditions and served as a positive control.
BC-3, an HHV-8 positive lymphoblastic cell line (ATCC CRL-2277) and RAMOS, an human Burkitt's lymphoma cell line (ATCC CRL-1596), were routinely maintained in RPMI 1640 medium supplemented with 10% fetal heat-inactivated bovine serum (FBS), and antibiotics (Sigma Chemical Co., St. Louis, Mo.) in a 5% CO2 incubator at 37° C. To prepare whole cell extracts, the cells were washed with cold phosphate-buffered saline twice and lysed in lysis RIPA buffer containing 10 mM Tris-HCl, pH 8.0, 140 mM NaCl, 1% Triton X-100, 1 mM EDTA, 0.5 mM EGTA, 0.1% sodium deoxycholate, 0.1% SDS, supplemented with protease inhibitor mixture (1 mM PMSF, 10 mM β-glycerophosphate, 10 mM NaF, 1 mM sodium orthovanadate, 1 mM sodium pyrophosphate), (ThermoFisher Scientific) at 4° C. for 30 min. […] The supernatants were collected as whole cell extracts, and protein concentration was determined by the Lowry method. […]

BC-3 cells = test: Cell growth inhibition; format: cell-based, human; conditions: 10 μM, D0 to D3, versus BC3 cells cultured in standard conditions
Procedure: Cell growth was measured every day from the day of treatment (DO) until 3 days after the treatment started (D3).
BC-3 cells were grown in RPMI-1640 GlutaMAX (Gibco) supplemented with 10% fetal bovine serum and antibiotics (amikacine and vancomycine) during 3 days. The number of cells per milliliter is measured at baseline, DO, D2 and D3. BC-3 were cultured with and without primaquine and Hycanthone.

[3] = system: MRC-5, primary cutaneous fibroblasts, primary keratinocytes, Hela P4; conditions: human, 48 h, 10 μM
Procedure: (§1) HHV8 infected cell line (BC3), HHV8-non infected cell lines (MRC5, HeLa P4), and HHV8 non infected primary cells (human keratinocytes, human cutaneous fibroblasts, B-type lymphocytes CD19+) were grown in vitro and treated by either Primaquine diphosphate, Hycanthone, Paclitaxel or Doxorubicin hydrochloride at a concentration of 10 μM. Cell viability was evaluated by ATP quantitation 48 h after the treatment started.
(§2) The effect of Primaquine diphosphate (Sigma), Hycanthone (Sigma), Paclitaxel (Sigma), and Doxorubicin (Sigma) were evaluated on relevant primary cells and cell lines that are or not infected by HHV-8.
• BC-3: cell line established from pleural effusion from a human immunodeficiency virus (HIV) negative patient diagnosed with primary effusion lymphoma (PEL). BC-3 cell line is HHV8 infected but not infected for Epstein-Barr virus (EBV) as well as for herpes simplex virus 1 &2 (HSV-1 & HSV-2) and cytomegalovirus (CMV) (ATCC), • MRC5: Cell line derived from normal lung tissue of a […] fetus (ATCC), • Primary cutaneous fibroblasts (Lonza ref CC 25 11), • Primary keratinocytes (Lonza ref 00 192 627), • HeLa: immortal cell line established from an adult human cervical cancer HVP-18 infected (NIH Reagent program), • Primary B-type lymphocytes CD19+: primary B cells positively selected using CD19 microbeads (Miltenyi).
(§3) Cells were treated in vitro with either Primaquine diphosphate (Sigma), Hycanthone (Sigma), Paclitaxel (Sigma), or Doxorubicin hydrochloride (Sigma) at a concentration of 10 μM. The viability of the cells was evaluated 48 h after the treatment started as previously described with the Kit CellTiter Glo (Promega).

[4] = system: BC-3 cells (HHV8 infected PEL cell line); test: Cell viability (ATP quantitation, CellTiter Glo) of HHV8-infected cells; format: cell-based, human; conditions: 10 μM, 48 h, HHV8 infected BC-3 cells
Procedure: as §1, §2
• BC-3: cell line established from pleural effusion from a human immunodeficiency virus (HIV) negative patient diagnosed with primary effusion lymphoma (PEL). […]
as §3

[5] = Toxicity of Primaquine in NOD/SCID mice; format: in vivo; conditions: 12.5 mg/kg, after 24 days of treatment
Procedure: (§4) Primaquine efficacy was evaluated using a mice model of immunodeficient NOD/SCID mice. […] Mice weight was measured at various times (D6, D13, D20 and D24) after the treatment started.
(§5) The experiment was conducted on 24 NOD/SCID mice (4 groups of 6 mice) (Charles River laboratories): 1 group (Mock) without xenograft (no BC-3) and non-treated (no Primaquine), 1 group with xenograft (BC-3) and non-treated (no Primaquine), 1 group with xenograft (BC-3) and treated (Primaquine 12.5 mg/kg; (Sigma), 1 group without xenograft and treated (Primaquine 12.5 mg/kg; (Sigma).
At the beginning of the experiments, the mice were 6 weeks old according to previous experiments conducted and available in the literature. Animals had 7 to 10 days of acclimatization before experiment. At baseline, 20.10^6 of BC3 cells in 500 μL of PBS were injected by i.p. in order to induce the development of PEL. Tumor growth is correlated with the total gain of weight. The consequent gain of weight should not exceed 150% of the baseline weight. For the group of mice […] by Primaquine, each mice received 1 i.p injection of 500 μL of PBS instead of BC-3 cells in order to evaluate the toxicity of Primaquine in mice.

BC-3 xenograft (PEL) = test: Primary Effusion Lymphoma xenograft model in immunodeficient NOD/SCID mice; format: in vivo
Procedure: as §4
Note the large growth tumor in the abdomen of the mouse that received BC-3 xenograft (“BC-3”) but not treated by primaquine.
At baseline, mice are inoculated with a PEL cell line (BC-3) by intraperitoneal (i.p) injection. One day after injection of BC-3 cells, Primaquine is administered by intraperitoneal injection, and then 3 times a week during 8 weeks. Tumoral burden is evaluated by the measure of weight every weeks (References: T. Matsuno, 2012: Diethyldithiocarbamate induces apoptosis in HHV-8-infected primary effusion lymphoma cells via inhibition of the NF-κB pathway; K. A. Sarosiek, 2010: Efficacy of bortezomib in a direct xenograft model of primary effusion lymphoma; W. Wu, 2005: Inhibition of HHV-8/KSHV infected primary effusion lymphomas in NOD/SCID mice by azidothymidine and interferon).
as §5, with “(Sigma). […]” for “(Sigma).”

## CCN(CC)C(=S)S [DDTC, Diethyldithiocarbamate]
[1]
  apoptosis (caspases 3/7 activation) versus non-treated control: 4 times

## CCN(CC)CCNc1ccc(CO)c2sc3ccccc3c(=O)c12 [Hycanthone]
[2]
  phosphorylation of IκB: dramatically reduced
BC-3 cells
  cellular growth of BC3: inhibited cellular growth
[3]
  toxicity (cell death) in other cell types non infected by HHV8: < 20%
[1]
  apoptosis (caspases 3/7 activation) versus non-treated control: at least as equivalent of that induced by DDTC

## CC(=O)O[C@H]1C(=O)[C@@]2(C)[C@H]([C@H](OC(=O)c3ccccc3)[C@]3(O)C[C@H](OC(=O)[C@H](O)[C@@H](NC(=O)c4ccccc4)c4ccccc4)C(C)=C1C3(C)C)[C@]1(OC(C)=O)CO[C@@H]1C[C@@H]2O [Paclitaxel]
[3]
  toxicity (cell death) in other cell types non infected by HHV8: > 20%
[4]
  cell death in BC-3 cells: induced cell death

## COc1cc(NC(C)CCCN)c2ncccc2c1 (stereo not drawn) [Primaquine diphosphate, Primaquine]
[2]
  phosphorylation of IκB: dramatically reduced
[5]
  toxicity in mice: did not show any toxicity
BC-3 cells
  cellular growth of BC3: inhibited cellular growth
BC-3 xenograft (PEL); 12.5 mg/kg i.p. 3 times a week, D24, versus untreated mice with BC-3 xenograft
  reduction of the median gain of weight: 39.4%
BC-3 xenograft (PEL); 12.5 mg/kg, after 24 days of treatment, picture versus untreated BC-3 mouse
  growth tumor in the abdomen: reduced growth tumor
[1]
  apoptosis (caspases 3/7 activation) versus non-treated control: at least as equivalent of that induced by DDTC

## COc1cccc2c1C(=O)c1c(O)c3c(c(O)c1C2=O)C[C@@](O)(C(=O)CO)C[C@@H]3O[C@H]1C[C@H](N)[C@H](O)[C@H](C)O1 [doxorubicin, Doxorubicin hydrochloride]
[3]
  toxicity (cell death) in other cell types non infected by HHV8: > 20%
[4]
  cell death in BC-3 cells: induced cell death

Source: patent US10842776B2, “Hycanthone derivatives and Primaquine derivatives for use in the prevention and/or the treatment of disorders associated to gammaherpesvirus” (priority 2016, dated 2020)
